Measurements as given in ChEMBL document CHEMBL3991601, “The target landscape of clinical kinase drugs” (Science, 2017).
Calls of active or inactive are those of the source. For most assays here, no stated cut-off is given here; in the data, actives have a measured Kd and inactives only a lower limit.

Experiments:
[1] = molecular target: T1, Serine/threonine-protein kinase 3 (Homo sapiens, UniProt Q13188)
T1 sequence (Q13188 whole entry): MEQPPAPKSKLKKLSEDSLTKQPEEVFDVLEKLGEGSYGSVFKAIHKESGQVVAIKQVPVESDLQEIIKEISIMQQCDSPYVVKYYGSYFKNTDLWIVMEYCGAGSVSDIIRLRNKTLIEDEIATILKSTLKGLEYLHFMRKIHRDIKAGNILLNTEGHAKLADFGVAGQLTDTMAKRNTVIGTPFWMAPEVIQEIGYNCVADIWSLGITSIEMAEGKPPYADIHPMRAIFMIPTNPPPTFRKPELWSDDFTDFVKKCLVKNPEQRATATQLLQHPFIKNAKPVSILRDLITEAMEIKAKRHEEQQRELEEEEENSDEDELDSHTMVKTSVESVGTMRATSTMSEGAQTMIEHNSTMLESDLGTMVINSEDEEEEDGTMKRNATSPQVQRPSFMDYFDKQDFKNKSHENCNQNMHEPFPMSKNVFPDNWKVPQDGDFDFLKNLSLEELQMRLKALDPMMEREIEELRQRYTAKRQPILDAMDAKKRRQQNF

[2] = molecular target: T2, Tyrosine--tRNA ligase, cytoplasmic (Homo sapiens, UniProt P54577)
T2 sequence (P54577 whole entry): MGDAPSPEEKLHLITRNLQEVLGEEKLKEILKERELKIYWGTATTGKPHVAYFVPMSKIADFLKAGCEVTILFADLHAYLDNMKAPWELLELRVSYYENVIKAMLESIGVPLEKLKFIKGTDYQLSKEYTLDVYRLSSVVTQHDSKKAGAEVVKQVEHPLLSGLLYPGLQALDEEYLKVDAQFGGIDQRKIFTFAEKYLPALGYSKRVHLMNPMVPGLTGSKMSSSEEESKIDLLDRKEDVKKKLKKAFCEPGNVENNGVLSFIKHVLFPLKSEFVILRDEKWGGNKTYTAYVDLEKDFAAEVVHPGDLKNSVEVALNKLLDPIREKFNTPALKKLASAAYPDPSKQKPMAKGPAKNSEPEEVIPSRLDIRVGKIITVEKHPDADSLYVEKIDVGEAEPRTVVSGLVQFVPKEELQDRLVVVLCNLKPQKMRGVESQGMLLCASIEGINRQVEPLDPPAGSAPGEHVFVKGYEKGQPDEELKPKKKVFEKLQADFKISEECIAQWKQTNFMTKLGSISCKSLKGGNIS

[3] = molecular target: T3, Inhibitor of nuclear factor kappa-B kinase subunit epsilon (Homo sapiens, UniProt Q14164)
T3 sequence (Q14164 whole entry): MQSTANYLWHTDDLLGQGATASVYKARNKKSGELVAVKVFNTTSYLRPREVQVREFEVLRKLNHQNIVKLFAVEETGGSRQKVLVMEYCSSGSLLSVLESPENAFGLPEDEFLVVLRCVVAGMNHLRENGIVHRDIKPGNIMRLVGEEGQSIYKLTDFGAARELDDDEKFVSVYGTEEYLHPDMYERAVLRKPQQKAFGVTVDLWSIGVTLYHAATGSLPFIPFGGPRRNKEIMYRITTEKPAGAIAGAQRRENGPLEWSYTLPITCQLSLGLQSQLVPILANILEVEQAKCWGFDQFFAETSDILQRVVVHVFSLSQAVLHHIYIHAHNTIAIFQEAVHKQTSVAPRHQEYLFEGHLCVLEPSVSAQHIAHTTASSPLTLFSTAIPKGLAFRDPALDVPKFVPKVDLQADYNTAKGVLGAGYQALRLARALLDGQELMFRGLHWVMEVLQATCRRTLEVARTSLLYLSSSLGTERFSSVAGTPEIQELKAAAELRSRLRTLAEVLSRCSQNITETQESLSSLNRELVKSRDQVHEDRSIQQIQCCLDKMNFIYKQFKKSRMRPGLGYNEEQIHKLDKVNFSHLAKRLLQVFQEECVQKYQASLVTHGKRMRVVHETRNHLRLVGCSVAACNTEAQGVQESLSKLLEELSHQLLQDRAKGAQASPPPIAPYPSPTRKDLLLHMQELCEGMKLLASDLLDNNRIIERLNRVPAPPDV

Ephrin type-B receptor 3 = molecular target: T4, Ephrin type-B receptor 3 (Homo sapiens, UniProt P54753)
T4 sequence (P54753 whole entry): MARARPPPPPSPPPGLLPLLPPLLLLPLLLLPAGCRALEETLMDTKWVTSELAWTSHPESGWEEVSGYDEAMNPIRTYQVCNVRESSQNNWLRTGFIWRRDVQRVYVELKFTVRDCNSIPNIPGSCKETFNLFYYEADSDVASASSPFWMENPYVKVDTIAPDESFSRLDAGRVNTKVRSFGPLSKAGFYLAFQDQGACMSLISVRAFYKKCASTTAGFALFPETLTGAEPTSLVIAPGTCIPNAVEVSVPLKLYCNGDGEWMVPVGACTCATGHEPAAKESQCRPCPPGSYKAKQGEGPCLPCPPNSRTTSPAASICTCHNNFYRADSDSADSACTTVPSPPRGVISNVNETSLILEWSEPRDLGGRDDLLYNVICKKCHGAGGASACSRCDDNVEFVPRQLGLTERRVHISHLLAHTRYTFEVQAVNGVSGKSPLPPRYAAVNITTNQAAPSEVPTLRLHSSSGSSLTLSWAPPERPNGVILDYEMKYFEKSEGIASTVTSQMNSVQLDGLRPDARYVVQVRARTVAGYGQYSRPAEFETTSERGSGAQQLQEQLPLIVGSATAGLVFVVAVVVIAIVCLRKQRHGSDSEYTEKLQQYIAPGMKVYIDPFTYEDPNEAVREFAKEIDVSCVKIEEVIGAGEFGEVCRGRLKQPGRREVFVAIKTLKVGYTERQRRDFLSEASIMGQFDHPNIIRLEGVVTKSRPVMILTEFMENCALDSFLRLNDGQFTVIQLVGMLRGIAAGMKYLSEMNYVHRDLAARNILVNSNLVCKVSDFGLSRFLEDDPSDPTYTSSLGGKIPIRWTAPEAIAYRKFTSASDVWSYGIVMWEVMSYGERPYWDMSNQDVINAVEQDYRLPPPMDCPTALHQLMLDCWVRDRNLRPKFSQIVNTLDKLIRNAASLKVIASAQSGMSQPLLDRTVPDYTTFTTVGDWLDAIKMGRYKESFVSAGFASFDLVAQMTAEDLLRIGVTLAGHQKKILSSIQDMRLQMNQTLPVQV

[4] = molecular target: Serine/threonine-protein kinase 26 (Homo sapiens, UniProt Q9P289)
[5] = molecular target: ATP-dependent RNA helicase DDX3X (Homo sapiens, UniProt O00571)
[6] = molecular target: Serine/threonine-protein kinase MRCK beta (Homo sapiens, UniProt Q9Y5S2)
[7] = molecular target: Tyrosine-protein kinase JAK1 (Homo sapiens, UniProt P23458)
[8] = molecular target: Mitogen-activated protein kinase kinase kinase 4 (Homo sapiens, UniProt Q9Y6R4)

Measured: Kd

Sequence of Tyrosine-protein kinase JAK1 (P23458 whole entry): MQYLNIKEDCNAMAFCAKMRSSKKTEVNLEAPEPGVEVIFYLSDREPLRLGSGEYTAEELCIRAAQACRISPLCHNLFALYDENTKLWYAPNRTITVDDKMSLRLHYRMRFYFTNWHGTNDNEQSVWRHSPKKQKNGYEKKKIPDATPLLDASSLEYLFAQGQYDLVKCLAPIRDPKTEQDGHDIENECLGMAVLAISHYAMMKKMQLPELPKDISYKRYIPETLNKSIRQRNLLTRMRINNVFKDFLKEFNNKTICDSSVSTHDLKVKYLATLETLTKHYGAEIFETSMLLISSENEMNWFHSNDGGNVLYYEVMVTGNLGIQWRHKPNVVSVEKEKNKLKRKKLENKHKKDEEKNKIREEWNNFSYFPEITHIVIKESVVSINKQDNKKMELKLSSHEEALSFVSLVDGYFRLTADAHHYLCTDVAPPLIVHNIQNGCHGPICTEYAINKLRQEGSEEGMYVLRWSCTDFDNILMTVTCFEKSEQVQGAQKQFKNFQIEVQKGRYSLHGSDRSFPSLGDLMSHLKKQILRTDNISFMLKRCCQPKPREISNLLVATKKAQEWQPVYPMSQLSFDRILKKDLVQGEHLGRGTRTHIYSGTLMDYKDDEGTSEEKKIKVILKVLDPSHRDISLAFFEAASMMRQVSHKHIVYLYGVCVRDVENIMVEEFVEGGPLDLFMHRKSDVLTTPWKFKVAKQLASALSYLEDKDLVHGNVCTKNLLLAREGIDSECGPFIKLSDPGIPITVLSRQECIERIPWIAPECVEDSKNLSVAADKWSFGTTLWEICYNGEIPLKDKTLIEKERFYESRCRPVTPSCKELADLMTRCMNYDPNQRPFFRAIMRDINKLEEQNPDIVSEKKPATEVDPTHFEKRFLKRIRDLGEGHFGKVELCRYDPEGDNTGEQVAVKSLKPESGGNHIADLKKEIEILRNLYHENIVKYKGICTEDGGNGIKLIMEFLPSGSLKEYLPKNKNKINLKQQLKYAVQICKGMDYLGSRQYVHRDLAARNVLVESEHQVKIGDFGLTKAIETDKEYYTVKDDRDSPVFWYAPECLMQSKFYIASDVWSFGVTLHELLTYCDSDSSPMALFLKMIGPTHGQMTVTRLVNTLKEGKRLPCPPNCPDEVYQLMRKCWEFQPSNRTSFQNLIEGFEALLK
Sequence of Serine/threonine-protein kinase MRCK beta (Q9Y5S2 whole entry): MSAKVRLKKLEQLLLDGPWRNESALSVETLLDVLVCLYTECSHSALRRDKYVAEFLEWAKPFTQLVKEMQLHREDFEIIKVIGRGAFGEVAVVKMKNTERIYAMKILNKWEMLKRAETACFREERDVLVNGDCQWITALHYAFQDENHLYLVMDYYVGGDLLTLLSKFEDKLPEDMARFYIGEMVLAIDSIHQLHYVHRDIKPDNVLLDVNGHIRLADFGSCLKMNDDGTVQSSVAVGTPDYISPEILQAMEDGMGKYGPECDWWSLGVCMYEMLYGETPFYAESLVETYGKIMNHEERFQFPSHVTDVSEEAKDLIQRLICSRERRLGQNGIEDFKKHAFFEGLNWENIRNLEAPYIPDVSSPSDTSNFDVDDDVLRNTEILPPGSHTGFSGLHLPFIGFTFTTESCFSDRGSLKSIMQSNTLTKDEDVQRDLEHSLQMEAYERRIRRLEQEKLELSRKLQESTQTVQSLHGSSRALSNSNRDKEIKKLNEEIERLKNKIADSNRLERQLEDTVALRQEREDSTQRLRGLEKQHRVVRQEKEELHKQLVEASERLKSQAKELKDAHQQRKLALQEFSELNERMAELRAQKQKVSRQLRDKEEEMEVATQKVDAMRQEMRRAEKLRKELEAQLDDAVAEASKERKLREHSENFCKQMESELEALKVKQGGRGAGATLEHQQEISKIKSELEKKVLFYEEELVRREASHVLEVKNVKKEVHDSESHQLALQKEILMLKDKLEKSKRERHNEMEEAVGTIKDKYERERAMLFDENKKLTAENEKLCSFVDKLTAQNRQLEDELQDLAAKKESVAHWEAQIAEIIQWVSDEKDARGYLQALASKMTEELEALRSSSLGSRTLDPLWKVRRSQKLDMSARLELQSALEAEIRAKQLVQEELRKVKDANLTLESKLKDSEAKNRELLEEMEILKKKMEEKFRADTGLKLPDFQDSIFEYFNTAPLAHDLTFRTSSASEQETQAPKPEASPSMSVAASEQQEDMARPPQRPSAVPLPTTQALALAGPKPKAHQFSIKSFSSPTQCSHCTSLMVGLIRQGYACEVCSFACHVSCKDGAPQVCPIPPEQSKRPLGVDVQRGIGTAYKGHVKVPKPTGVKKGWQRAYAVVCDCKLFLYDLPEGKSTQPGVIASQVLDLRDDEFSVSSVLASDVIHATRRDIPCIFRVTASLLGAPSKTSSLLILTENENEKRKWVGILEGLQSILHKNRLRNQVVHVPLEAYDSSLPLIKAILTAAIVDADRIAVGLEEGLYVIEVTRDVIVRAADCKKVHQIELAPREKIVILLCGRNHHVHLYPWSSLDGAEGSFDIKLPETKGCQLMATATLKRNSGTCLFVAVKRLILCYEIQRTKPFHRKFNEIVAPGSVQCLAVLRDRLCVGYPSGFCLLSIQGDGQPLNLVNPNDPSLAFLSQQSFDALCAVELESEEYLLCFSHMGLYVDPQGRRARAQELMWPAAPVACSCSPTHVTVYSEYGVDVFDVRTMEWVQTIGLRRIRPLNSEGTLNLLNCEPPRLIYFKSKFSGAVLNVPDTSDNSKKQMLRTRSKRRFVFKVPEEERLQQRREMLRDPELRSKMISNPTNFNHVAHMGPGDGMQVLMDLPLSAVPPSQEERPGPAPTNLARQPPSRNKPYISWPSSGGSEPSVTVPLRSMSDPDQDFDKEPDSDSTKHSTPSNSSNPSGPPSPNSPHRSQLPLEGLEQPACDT
Sequence of ATP-dependent RNA helicase DDX3X (O00571 whole entry): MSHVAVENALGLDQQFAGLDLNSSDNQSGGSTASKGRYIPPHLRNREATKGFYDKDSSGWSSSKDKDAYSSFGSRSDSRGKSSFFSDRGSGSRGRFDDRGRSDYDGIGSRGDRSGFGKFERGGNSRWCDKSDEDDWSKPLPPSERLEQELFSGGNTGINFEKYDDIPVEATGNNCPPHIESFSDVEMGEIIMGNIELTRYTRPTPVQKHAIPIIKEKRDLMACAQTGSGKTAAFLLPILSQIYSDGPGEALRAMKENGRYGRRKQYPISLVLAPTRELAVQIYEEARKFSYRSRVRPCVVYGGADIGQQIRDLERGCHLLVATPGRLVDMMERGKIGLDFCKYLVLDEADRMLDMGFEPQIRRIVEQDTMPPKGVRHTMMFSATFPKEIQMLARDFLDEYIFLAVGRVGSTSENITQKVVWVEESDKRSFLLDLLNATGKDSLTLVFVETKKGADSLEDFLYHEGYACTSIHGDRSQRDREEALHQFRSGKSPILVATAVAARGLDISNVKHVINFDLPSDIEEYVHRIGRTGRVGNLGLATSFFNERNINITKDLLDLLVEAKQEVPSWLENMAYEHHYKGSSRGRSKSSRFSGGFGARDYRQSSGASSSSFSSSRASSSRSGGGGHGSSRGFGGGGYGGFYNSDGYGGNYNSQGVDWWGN
Sequence of Mitogen-activated protein kinase kinase kinase 4 (Q9Y6R4 whole entry): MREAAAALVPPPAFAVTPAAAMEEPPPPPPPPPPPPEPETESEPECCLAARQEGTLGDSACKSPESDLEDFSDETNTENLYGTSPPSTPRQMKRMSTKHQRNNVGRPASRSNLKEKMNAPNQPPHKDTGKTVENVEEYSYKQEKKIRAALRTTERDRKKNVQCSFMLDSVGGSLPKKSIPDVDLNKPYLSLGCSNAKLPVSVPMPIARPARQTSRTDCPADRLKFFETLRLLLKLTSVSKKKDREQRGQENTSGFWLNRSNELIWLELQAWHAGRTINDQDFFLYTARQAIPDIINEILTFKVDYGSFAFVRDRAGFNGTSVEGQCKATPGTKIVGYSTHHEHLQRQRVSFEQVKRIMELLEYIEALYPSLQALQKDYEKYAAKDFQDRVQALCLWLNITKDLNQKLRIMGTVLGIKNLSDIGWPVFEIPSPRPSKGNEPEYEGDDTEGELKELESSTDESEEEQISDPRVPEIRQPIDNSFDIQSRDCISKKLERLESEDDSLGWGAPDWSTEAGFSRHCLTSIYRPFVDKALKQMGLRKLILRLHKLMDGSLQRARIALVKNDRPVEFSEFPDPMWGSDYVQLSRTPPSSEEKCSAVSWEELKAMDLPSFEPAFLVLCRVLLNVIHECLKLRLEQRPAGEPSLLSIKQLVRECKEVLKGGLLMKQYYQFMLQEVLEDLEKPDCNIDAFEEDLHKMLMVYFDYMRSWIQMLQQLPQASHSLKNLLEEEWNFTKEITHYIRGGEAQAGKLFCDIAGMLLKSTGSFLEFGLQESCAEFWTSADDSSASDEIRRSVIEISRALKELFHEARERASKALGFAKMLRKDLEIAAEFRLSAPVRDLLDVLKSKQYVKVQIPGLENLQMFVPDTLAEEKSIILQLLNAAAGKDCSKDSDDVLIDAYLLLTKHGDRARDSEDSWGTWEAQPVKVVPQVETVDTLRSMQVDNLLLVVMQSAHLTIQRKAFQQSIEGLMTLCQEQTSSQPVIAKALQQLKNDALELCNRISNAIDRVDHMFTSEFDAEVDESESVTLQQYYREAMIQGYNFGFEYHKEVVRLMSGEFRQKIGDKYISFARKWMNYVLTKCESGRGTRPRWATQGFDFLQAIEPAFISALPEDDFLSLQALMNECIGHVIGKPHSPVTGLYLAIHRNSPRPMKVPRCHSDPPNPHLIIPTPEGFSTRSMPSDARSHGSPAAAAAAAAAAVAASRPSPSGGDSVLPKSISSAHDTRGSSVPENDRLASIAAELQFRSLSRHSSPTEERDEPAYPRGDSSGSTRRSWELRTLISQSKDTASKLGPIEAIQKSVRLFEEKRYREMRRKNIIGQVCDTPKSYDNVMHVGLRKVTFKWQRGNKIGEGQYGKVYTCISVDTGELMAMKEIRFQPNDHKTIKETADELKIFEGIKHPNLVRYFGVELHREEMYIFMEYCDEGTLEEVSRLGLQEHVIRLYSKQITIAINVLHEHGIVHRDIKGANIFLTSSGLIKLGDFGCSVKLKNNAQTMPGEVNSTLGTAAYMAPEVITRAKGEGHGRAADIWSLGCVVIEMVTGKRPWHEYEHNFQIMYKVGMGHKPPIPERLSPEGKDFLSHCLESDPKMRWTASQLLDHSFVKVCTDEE

NC[C@@](O)(c1ccc(Cl)cc1)c1ccc(-c2cn[nH]c2)cc1 [AT-13148]
inactive: [1] > 30 µM | [2] > 30 µM | [3] > 30 µM | Ephrin type-B receptor 3 > 30 µM | [4] > 30 µM | [5] > 30 µM | [6] > 30 µM | [7] > 30 µM | [8] > 30 µM
